Assay results reported in patent US9375421B2, “Pharmaceutical intervention for treating an apraxia of speech in children” (Gilrose Pharmaceuticals, LLC, priority 2011, dated 2016).

Assays:
[1] = test system: children with apraxia of speech; experiment: Speech and language assessment of children with apraxia of speech before and after a psychostimulant dose (case examples); assay type: in vivo, human
Excerpt: Assessment of the verbal ability of a subject can include but is not limited to measures of all the domains described herein: nonspeech oral-motor, speech production, prosody, voice, speech perception, language, and, for older children, linguistic/literacy skills. Of these, (a) inconsistent errors on consonants and vowels in repeated productions of syllables or words, (b) lengthened and disrupted coarticulatory transitions between sounds and syllables, (c) inappropriate prosody, especially in the realization of lexical or phrasal stress; (d) the inability to see a new word and to have the ability to identify and sequence in time and space the sounds not only by themselves but in relationship to one another to be able to produce to transform from a symbol, orthographic to sound representation but to do it according to the rules of language knowing where to divide the written symbols into units; (e) the inability to not only transform into sounds, but sounds in relationship in terms of speed and volume to have that word in the context have that meaning that the author of the written word wanted to convey. The cultural and linguistic background of each subject may optionally be assessed.
When treating a child who is incapable of communication, the child is tested with respect to language skills as well as visual-spatial comprehension skills. For example, a child may be asked to pronounce a few single syllable words, such as “ma, ma” “ba, ba” or to described a picture or read a few words. At the same time, the child's body motions and emotional interactions with other people are observed.
For example, an improvement in a subject may include but is not limited to, an increase in the number of correct phonemes when speaking, a more normal time spent enunciating words, the number of times the last consonant of a word is used correctly, the proper sequencing of words and events, appropriate sound intensity.
Depending where the patient is on the apraxia pyramid, for example vocalization, words, prosody, the number of words in the sentence, the number or types of words in the sentence, the grammar syntax, prosody, measuring the child to his/her previous ability 20-30 minutes ago in addition to medication.

[2] = test system: children with good nonverbal development not functioning well with reading and language skills; experiment: Three minute reading test before and after administering the medicine (FIG. 2 and FIG. 3); assay type: in vivo, human; conditions: most of the nine children; 5 mg; pre- versus after administering
Description: FIG. 2 is a comparison of the reading abilities of a group of children with a various diagnosed symptoms between pre-treatment and after-treatment with one dosage of 5-7.5 mg of methylphenidate.
FIG. 3 is a comparison of the reading abilities of another group of children with a various diagnosed symptoms between pre-treatment and after-treatment with one dosage of 5-7.5 mg of methylphenidate.
Metrics for quantitative assessment of the language ability include words per minute, three minute reading test, sentence complexity such as length in words, complexity of construction, etc. The number of correctly read syllables minuses the number of mistakes divided by the months of reading training may be used to assess the language ability development.
In reference to FIG. 2 and FIG. 3. […] They were tested for three minute reading before and after administering the medicine. The mistakes in pronouncing syllables were counted. The correct pronunciation ratios (divided by the total number of syllables read) were compared between the pre-administering the drug and after administering the drug. […] Most of them had least 40% improvement.

SMILES | speech and language (Example 9A, fifth visit) ([1]; Participant 9A, 10 mg/day after the methylphenidate regimen, about two weeks later) | speech and comprehension (Example 9B) ([1]; Participant 9B, same regimen as 9A (methylphenidate 5 then 10 mg/day, then Focalin 10 mg/day)) | improvement of correct pronunciation ratio, three minute reading [2] [%] | speech ability after dose (Example 1) ([1]; 11 year autistic boy, 10 mg tablets, thirty minutes after dose) | speech improvement (Example 9A, third visit) ([1]; Participant 9A, 5 mg/day, after a month) | comprehension (Example 9A, fourth visit) ([1]; Participant 9A, 10 mg/day, about a month later) | reading ability after dose (Example 5) ([1]; child with dyslexia, 10 mg, half an hour later) | speech ability after dose (Example 7) ([1]; child, chromosome 15 duplication, 2.5 mg, thirty minutes later) | speech and motor ability after dose (Example 8) ([1]; child, 5 mg, after 30 minutes) | speech ability after dose (Example 2) ([1]; child, one dosage of 5 mg, half an hour later) | follow up on speech after repeated dosing (Example 7) ([1]; same child, 2.5 mg a day for two to three months)
COC(=O)[C@H](c1ccccc1)[C@H]1CCCCN1 [Focalin®, dextro-threo-methylphenidate] | able to answer questions about their daily life in clear speech and language | an improvement in speech and comprehension |  |  |  |  |  |  |  |  | 
COC(=O)C(c1ccccc1)C1CCCCN1 (centres unmarked) [methylphenidate] |  |  | ≥ 40 | able to imitate “ma ma ma” | no significant improvement in speech | able to understand the story line of a children's book | able to read a sentence with smooth pronunciations | able to make sounds of “ma mi”, mimic “bye”, “bye” and babble with sounds | able to repeat two syllable words | able to follow instructions to mimic the sounds “ma” “ma” “ga” “ga” | good progress in speaking sounds
